Experimental findings from patent US20250319056A1, “METHODS FOR TREATING CANCER” (THE TRUSTEES OF INDIANA UNIVERSITY, priority 2024, published 2025) are described below.

Read-outs that look alike come from different tables or passages of the source.

One data set relates to HCT-116 cells. In words: AlamarBlue cell viability assay, HCT-116 colon cancer cells. It counts as cell-based, human. The conditions noted are these: for EC50: read-out: Human Cell Viability EC50 Colon Cancer (HCT 116); for Average Selectivity Index: CC50 non-cancer cells (FHC, FHs 74Int) compared to EC50 HCT-116. In general terms: Alamar Blue is a resazurin reagent that responds to reducing activity.

A further data set concerns the target T1, mHSP60/10 (Homo sapiens, UniProt P10809).
T1 construct: Processed human HSP60 (mHSP60—that would be in mitochondria) was expressed in Rosetta™ 2 (DE3) E. coli; octa-Histidine tag (TEV-cleavable) (N, cleaved yes); made in house; host or cells: E. coli Rosetta 2 (DE3) for mHSP60; Rosetta 2 (DE3) pLysS for HSP10
In words: mHSP60/10-mediated dMDH refolding assay. It counts as biochemical.

For a further data set, the target named is T2, GroEL/ES (Escherichia coli, UniProt P0A6F5).
T2 construct: made in house; host or cells: NEB 5-alpha E. coli for GroEL; E. coli BL21 (DE3) for GroES
The experiment in a line: GroEL/ES-dMDH refolding assay. It is filed as biochemical, E. coli.

The subject of a further data set is DLD-1 cells. The experiment in a line: AlamarBlue cell viability assay, DLD-1 colon cancer cells. It is filed as cell-based. The conditions noted are these: Homo sapiens, 48 h with compound, ^BP = curve baseline plateaued between ~10-20%, read-out: Human Cell Viability EC50 Colon Cancer (DLD1).
The test system of the next data set is HT-29 cells. In words: AlamarBlue cell viability assay, HT-29 colon cancer cells. It counts as cell-based. The conditions noted are these: Homo sapiens, 48 h with compound, ^BP = curve baseline plateaued between ~10-20%.
Data set [1] can be described thus: AlamarBlue cell viability assay, non-cancerous colon FHC cells. The conditions noted are these: human, FHC non-cancerous colon cells, Human Cell Viability CC50 Colon (FHC), non-cancerous colon cells, AlamarBlue, 48 h.
A short description of data set [2]: AlamarBlue cell viability assay, non-cancerous intestine FHs-74Int cells. The conditions noted are these: human, FHs-74Int non-cancerous intestine cells, Human Cell Viability CC50 Intestine (FHs 74Int), non-cancerous intestine cells, AlamarBlue, 48 h.
The mark [3] stands for this setting: Homo sapiens, HCT-116, 48 h, AlamarBlue, 48 h with compound.
[4] abbreviates: denatured malate dehydrogenase client, read-out: IC50 mHSP60/10-dMDH refolding.

T2 sequence (P0A6F5 2-548): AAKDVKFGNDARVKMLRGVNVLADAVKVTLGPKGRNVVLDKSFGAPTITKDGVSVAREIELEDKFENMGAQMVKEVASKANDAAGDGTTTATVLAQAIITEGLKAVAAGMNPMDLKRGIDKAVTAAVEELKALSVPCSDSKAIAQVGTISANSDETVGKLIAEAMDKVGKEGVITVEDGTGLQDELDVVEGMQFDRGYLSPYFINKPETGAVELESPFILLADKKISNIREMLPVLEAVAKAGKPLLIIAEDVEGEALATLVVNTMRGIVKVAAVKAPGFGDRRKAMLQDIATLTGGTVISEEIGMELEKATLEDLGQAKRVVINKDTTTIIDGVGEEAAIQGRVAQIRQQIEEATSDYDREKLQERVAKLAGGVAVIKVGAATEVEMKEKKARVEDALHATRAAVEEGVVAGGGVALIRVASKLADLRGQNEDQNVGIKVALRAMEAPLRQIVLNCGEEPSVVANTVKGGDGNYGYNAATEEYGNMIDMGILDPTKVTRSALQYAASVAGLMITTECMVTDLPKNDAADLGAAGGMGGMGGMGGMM
T1 sequence (P10809 27-573): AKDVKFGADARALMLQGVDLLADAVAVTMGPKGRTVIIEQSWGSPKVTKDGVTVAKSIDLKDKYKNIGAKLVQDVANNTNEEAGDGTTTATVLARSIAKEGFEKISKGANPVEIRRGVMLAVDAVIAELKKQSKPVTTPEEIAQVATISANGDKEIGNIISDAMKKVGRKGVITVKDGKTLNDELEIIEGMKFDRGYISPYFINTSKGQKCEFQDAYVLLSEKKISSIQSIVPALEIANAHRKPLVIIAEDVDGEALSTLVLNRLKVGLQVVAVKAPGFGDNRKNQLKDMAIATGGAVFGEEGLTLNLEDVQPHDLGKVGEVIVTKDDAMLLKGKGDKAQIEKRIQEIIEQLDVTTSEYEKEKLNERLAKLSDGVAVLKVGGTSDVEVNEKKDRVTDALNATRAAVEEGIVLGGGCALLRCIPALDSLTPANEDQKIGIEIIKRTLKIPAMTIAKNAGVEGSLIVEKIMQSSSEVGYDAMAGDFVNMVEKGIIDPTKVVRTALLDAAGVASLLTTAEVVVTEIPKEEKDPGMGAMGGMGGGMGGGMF

A word on the CC50: it is the concentration giving 50% cytotoxicity. Lower therefore signals harm at low concentration. Take `O=C(N/N=C/c1cccc2ccccc12)c1ccccc1` [Compound 153]: the 50% cytotoxic concentration (CC50) in the data set on FHC cells is no less than 100 µM; in the data set with FHs-74Int cells, greater than 100 µM.
Usually EC50 stands for the concentration giving half of the maximal effect. On to `Oc1c(Cl)cc(Cl)c(Cl)c1Cc1c(O)c(Cl)cc(Cl)c1Cl` [Compound 32, Hexachlorophene, reference compound], for which the EC50 in the data set on HCT-116 cells (Homo sapiens, HCT-116, 48 h) turned out to be 4.6 µM. The IC50 at mHSP60/10 and against GroEL/ES was 0.8 to 9 µM throughout.
As to `COc1ccc(-c2ccc3cc(C(=O)O)ccc3c2)cc1C12CC3CC(CC(C3)C1)C2` [Compound 25, Adapalene, reference compound], the “Average Selectivity Index” value in the data set with HCT-116 cells worked out at 5.4. Besides, the concentration giving a half-maximal response (EC50) in the data set on HCT-116 cells (setting [3]) was determined as 5.8 µM; with DLD-1 cells it was 7.9 µM; with HT-29 cells it was 5.3 µM. Moreover, the IC50 on mHSP60/10 (setting [4]) and against GroEL/ES was 0.8 to 9 µM in each case. For the same compound, the cytotoxic concentration (CC50) at 48 h in data set [1] was 43.7 µM; in data set [2] it was 18.5 µM.
With `CC1CS(=O)(=O)CCN1/N=C/c1ccc(O)c2ncccc12` (centres unmarked) [Compound 134], the “Average Selectivity Index” value in the data set with HCT-116 cells worked out at 13. The EC50 in the data set on HCT-116 cells (setting [3]) is 7 µM; in the data set on DLD-1 cells, 6.3 µM; in the data set on HT-29 cells it was 8.1 µM. For the same compound, the CC50 at 48 h in [1] was greater than 100 µM; in data set [2], 87 µM.
As for `COc1ccc(C(=O)N/N=C/c2ccc(O)cc2)cc1` [Compound 154], the CC50 in the data set with FHC cells and with FHs-74Int cells was greater than 100 µM throughout.
`O=C(N/N=C/c1ccc([N+](=O)[O-])o1)c1cccc2ccccc12` [Compound 126]: in the data set with HCT-116 cells, the “Average Selectivity Index” value was determined as 5.7. Besides, the results for the concentration for a half-maximal effect (EC50) in the data set with HCT-116 cells (setting [3]), with DLD-1 cells and in the data set with HT-29 cells were 9.6 µM, 11 µM and 4.4 µM, respectively. In addition, the CC50 at 48 h came to 58 µM in data set [1] and 52 µM in data set [2].
Turning to `O=C(N/N=C/c1ccc(O)cc1)c1ccccc1` [Compound 155], the CC50 in the data set with FHC cells and in the data set with FHs-74Int cells was greater than 100 µM in each case.
In the case of `O=C(N/N=C/c1ccc([N+](=O)[O-])o1)c1ccc(NS(=O)(=O)c2ccc(Br)cc2)cc1` [Compound 131], in the data set with HCT-116 cells, the “Average Selectivity Index” value is 18.8. Moreover, the EC50 in the data set on HCT-116 cells (setting [3]) is 5.3 µM; in the data set with DLD-1 cells, 29 µM; with HT-29 cells, 3.6 µM. Also, the CC50 at 48 h in data set [1] and in [2] was greater than 100 µM in each case.
In the case of `CN(C)c1ccc(C(=C2C=CC(=[N+](C)C)C=C2)c2ccc(N(C)C)cc2)cc1` [Compound 56, Crystal Violet, reference compound], the EC50 in the data set on HCT-116 cells (AlamarBlue, 48 h with compound) was determined as 0.5 µM; with HCT-116 cells (setting [3]) it was 0.54 µM; with DLD-1 cells, 0.2 µM; in the data set with HT-29 cells, 0.1 µM. Moreover, in the data set with HCT-116 cells, the “Average Selectivity Index” value amounted to 9.4. The IC50 on mHSP60/10 (setting [4]) and against GroEL/ES was 0.8 to 9 µM in each case. Besides, the values for the CC50 at 48 h in data set [1] and in data set [2] were 8.6 µM and 1.6 µM, respectively.
Turning to `O=C(N/N=C/c1ccc([N+](=O)[O-])o1)c1ccc(NS(=O)(=O)c2cccs2)cc1` [Compound 130], the “Average Selectivity Index” value with HCT-116 cells worked out at 9.3. The EC50 in the data set on HCT-116 cells (setting [3]) was determined as 9.1 µM; in the data set on DLD-1 cells it was 57 µM; in the data set with HT-29 cells, 8.1 µM. Also, the CC50 at 48 h was greater than 100 µM in [1] and 69 µM in data set [2].
For the compound `O=C(N/N=C/c1ccc(O)c2ncccc12)c1cccc2ccccc12` [Compound 141], the “Average Selectivity Index” value in the data set with HCT-116 cells is given as 13. The values for the concentration giving a half-maximal response (EC50) with HCT-116 cells (setting [3]), in the data set on DLD-1 cells and in the data set with HT-29 cells were 4.1 µM, 1.6 µM and 1.5 µM, respectively. Further, the 50% cytotoxic concentration (CC50) at 48 h was determined as 46 µM in data set [1] and 60 µM in data set [2].
As for `CCOc1ccc(S(=O)(=O)Nc2ccc(C(=O)N/N=C/c3ccc([N+](=O)[O-])o3)cc2)cc1` [Compound 132, 4-ethoxy-N-(4-(2-((5-nitrofuran-2-yl)methylene)hydrazine-1-carbonyl)phenyl)benzenesulfonamide], the “Average Selectivity Index” value in the data set on HCT-116 cells is 52.0. Further, the EC50 in the data set with HCT-116 cells (setting [3]) was found to be 1.8 µM; in the data set with DLD-1 cells, 18 µM; with HT-29 cells, 2.3 µM. The CC50 at 48 h was 89 µM in [1] and greater than 100 µM in data set [2].
For the compound `COc1ccc(C(=O)N/N=C/c2ccccc2)cc1` [Compound 156], the CC50 in the data set on FHC cells and with FHs-74Int cells was greater than 100 µM in each case.
Regarding `O=C(N/N=C/c1ccccc1)c1ccccc1` [Compound 157], the CC50 in the data set on FHC cells and in the data set on FHs-74Int cells was greater than 100 µM in each case.
In the case of `COc1ccc(C(=O)N/N=C/c2ccc(O)c3ccccc23)cc1` [Compound 148], the CC50 in the data set on FHC cells and in the data set with FHs-74Int cells was greater than 100 µM in each case.
Consider `CCN(CC)S(=O)(=O)c1cccc(C(=O)N/N=C/c2ccc(O)c3ncccc23)c1` [Compound 144], for which, in the data set on HCT-116 cells, the “Average Selectivity Index” value was 9.5. For the same compound, the EC50 with HCT-116 cells (setting [3]) was 4.9 µM; with DLD-1 cells, 1.3 µM; in the data set on HT-29 cells, 4.4 µM. Moreover, the CC50 at 48 h stood at 34 µM in data set [1] and 59 µM in [2].
Take `O=C(N/N=C/c1ccc(O)c2ncccc12)c1ccc(NS(=O)(=O)c2ccc(Br)cc2)cc1` [Compound 146]: the “Average Selectivity Index” value with HCT-116 cells is 14. Moreover, the figures for the 50% effective concentration (EC50) in the data set on HCT-116 cells (setting [3]), in the data set with DLD-1 cells and in the data set with HT-29 cells were 5.2 µM, 6 µM and 1.4 µM, respectively. Also, the CC50 at 48 h in data set [1] stood at 59 µM; in [2], 91 µM.
For the compound `COc1ccc(C(=O)N/N=C/c2cccc3ccccc23)cc1` [Compound 152], the CC50 in the data set with FHC cells and with FHs-74Int cells was greater than 100 µM each time.
Take `CN(C)c1ccc(C(=O)N/N=C/c2ccc([N+](=O)[O-])o2)cc1` [Compound 125]: in the data set with HCT-116 cells, the “Average Selectivity Index” value amounted to 11.8. The figures for the EC50 with HCT-116 cells (setting [3]), in the data set with DLD-1 cells and in the data set on HT-29 cells were 8.5 µM, greater than 100 µM and 0.29 µM, respectively. Further, the CC50 at 48 h in data set [1] and in data set [2] was greater than 100 µM in each case.
For `COc1ccc(C(=O)N/N=C/c2cccc3ncccc23)cc1` [Compound 150], the CC50 with FHC cells and in the data set on FHs-74Int cells was greater than 100 µM in each case.
With `Oc1cccc(C(Nc2nccs2)c2ccc3cccnc3c2O)c1` (centres unmarked) [Compound 90], in the data set with HCT-116 cells, the “Average Selectivity Index” value amounted to 26.2. For the same compound, the concentration for a half-maximal effect (EC50) with HCT-116 cells (setting [3]) was 2.5 µM; in the data set on DLD-1 cells, 15 µM; in the data set on HT-29 cells it was 8.3 µM. Moreover, the IC50 on mHSP60/10 (setting [4]) and against GroEL/ES was 0.8 to 9 µM in each case. Further, the CC50 at 48 h in data set [1] came to 66.6 µM; in data set [2], 64.6 µM.
`O=C(N/N=C/c1ccc([N+](=O)[O-])o1)c1ccc(Cl)s1` [Compound 121]: in the data set with HCT-116 cells, the “Average Selectivity Index” value was determined as 6.2. Further, the EC50 is 8.2 µM with HCT-116 cells (setting [3]), 8 µM in the data set with DLD-1 cells and 5.7 µM with HT-29 cells. Besides, the results for the CC50 at 48 h in data set [1] and in data set [2] were 51 µM and 49 µM, respectively.
In the case of `O=C(N/N=C/c1ccc(O)c2ncccc12)c1ccc(NS(=O)(=O)c2cccs2)cc1` [Compound 145], the “Average Selectivity Index” value with HCT-116 cells was 6.2. The EC50 with HCT-116 cells (setting [3]) was determined as 2.4 µM; in the data set on DLD-1 cells it was 5.7 µM; in the data set with HT-29 cells, 2.9 µM. Moreover, the 50% cytotoxic concentration (CC50) at 48 h in [1] worked out at 24 µM; in data set [2], 6.1 µM.
For the compound `CCCCCOc1ccc(/C=C2\Oc3c(ccc(O)c3O)C2=O)c(O)c1` [Compound 86], in the data set on HCT-116 cells, the “Average Selectivity Index” value came out at 8.0. Moreover, the figures for the EC50 in the data set on HCT-116 cells (setting [3]), with DLD-1 cells and in the data set on HT-29 cells were 12.5 µM, 23 µM and 5.9 µM, respectively. For the same compound, the IC50 at mHSP60/10 (setting [4]) and at GroEL/ES was 0.8 to 9 µM each time. The CC50 at 48 h in data set [1] and in data set [2] was greater than 100 µM each time.
Regarding `O=C(N/N=C/c1cccc2ncccc12)c1ccccc1` [Compound 151], the CC50 with FHC cells and in the data set on FHs-74Int cells was greater than 100 µM each time.
Consider `O=C(N/N=C/c1ccc(O)c2ccccc12)c1ccccc1` [Compound 149], for which the CC50 in the data set on FHC cells and in the data set on FHs-74Int cells was greater than 100 µM each time.
On to `CCN(CC)S(=O)(=O)c1cccc(C(=O)N/N=C/c2ccc([N+](=O)[O-])o2)c1` [Compound 129], for which the “Average Selectivity Index” value with HCT-116 cells is reported as 12.0. For the same compound, the concentration giving a half-maximal response (EC50) worked out at 7.8 µM in the data set with HCT-116 cells (setting [3]), 8.9 µM in the data set with DLD-1 cells and 4.2 µM with HT-29 cells. Also, the CC50 at 48 h in data set [1] was greater than 100 µM; in data set [2], 8.7 µM.
